Experiment [1] concerns the target T1, human adenosine A1 receptor (Homo sapiens, UniProt P30542).
T1 construct: expressed in transfected cells; host or cells: CHO cells, semliki forest virus expression system; washed membranes
T1 sequence (P30542 1-326): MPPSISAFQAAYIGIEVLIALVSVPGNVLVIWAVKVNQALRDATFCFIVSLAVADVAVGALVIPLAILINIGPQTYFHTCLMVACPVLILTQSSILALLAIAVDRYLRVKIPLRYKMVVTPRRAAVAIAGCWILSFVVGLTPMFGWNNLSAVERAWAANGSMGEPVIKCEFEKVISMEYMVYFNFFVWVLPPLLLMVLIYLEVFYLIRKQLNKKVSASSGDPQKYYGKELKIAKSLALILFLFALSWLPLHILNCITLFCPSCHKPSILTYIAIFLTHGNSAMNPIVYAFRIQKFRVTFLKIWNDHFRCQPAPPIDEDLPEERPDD
In words: [3H]-DPCPX binding assay, human adenosine A1 receptor (CHO cell membranes, SPA). The settings on record: selectivity of hA2A versus hA1 binding. On the procedure:
Human Adenosine A1 Receptor
(§1) The human adenosine A1 receptor was recombinantly expressed in Chinese hamster ovary (CHO) cells using the semliki forest virus expression system. Cells were harvested, washed twice by centrifugation, homogenized and again washed by centrifugation. The final washed membrane pellet was suspended in a Tris (50 mM) buffer containing 120 mM NaCl, 5 mM KCl, 2 mM CaCl2 and 10 mM MgCl2 (pH 7.4) (buffer A). The [^3H]-DPCPX (([propyl-^3H]8-cyclopentyl-1,3-dipropyxanthine); 0.6 nM) binding assay was carried out in 96-well plates in the presence of 2.5 μg of membrane protein, 0.5 mg of Ysi-poly-1-lysine SPA beads and 0.1 U adenosine deaminase in a final volume of 200 μl of buffer A. Non-specific binding was defined using xanthine amine congener (XAC; 2 μM). Compounds were tested at 10 concentrations from 10 μM-0.3 nM. All assays were conducted in duplicate and repeated at least two times. Assay plates were incubated for 1 hour at room temperature before centrifugation and then bound ligand was determined using a Packard Topcount scintillation counter. IC50 values were calculated using a non-linear curve fitting program and Ki values calculated using the Cheng-Prussoff equation.

The target of experiment [2] is T2, human adenosine A2A receptor (Homo sapiens, UniProt P29274).
T2 construct: expressed in transfected cells; host or cells: CHO cells, semliki forest virus expression system; washed membranes
T2 sequence (P29274 whole entry): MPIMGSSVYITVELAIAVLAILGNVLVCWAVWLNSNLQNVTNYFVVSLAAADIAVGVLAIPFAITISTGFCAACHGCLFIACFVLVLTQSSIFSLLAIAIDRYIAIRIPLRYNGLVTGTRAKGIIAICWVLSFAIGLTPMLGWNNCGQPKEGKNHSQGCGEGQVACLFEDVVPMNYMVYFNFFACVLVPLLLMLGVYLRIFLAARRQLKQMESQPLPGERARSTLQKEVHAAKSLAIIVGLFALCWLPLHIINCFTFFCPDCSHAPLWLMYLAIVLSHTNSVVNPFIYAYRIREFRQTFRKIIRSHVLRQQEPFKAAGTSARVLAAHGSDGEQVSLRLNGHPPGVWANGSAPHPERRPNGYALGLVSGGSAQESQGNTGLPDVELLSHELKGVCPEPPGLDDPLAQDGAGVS
Kind of experiment: [3H]-SCH-58261 binding assay, human adenosine A2A receptor (CHO cell membranes, SPA). The settings on record: recombinant human A2A receptor in CHO membranes, [3H]-SCH-58261 1 nM; read-out: hA2 (pKi) (converted). How it is done:
Human Adenosine A2A Receptor
as §1, with “A2A” for “A1”, “[^3H]-SCH-58261 (Dionisotti et al., 1997, Br J Pharmacol 121, 353; 1” for “[^3H]-DPCPX (([propyl-^3H]8-cyclopentyl-1,3-dipropyxanthine); 0.6”, “ligand” for “ligand was”

In the case of `COc1ccc(C2COCCO2)c2sc(NC(=O)c3ccnc(N4CC(O)C4)c3)nc12` (single isomer, unassigned; (+)) [Example 49, (+)-N-(7-[1,4]Dioxan-2-yl-4-methoxy-benzothiazol-2-yl)-2-(3-hydroxy-azetidin-1-yl)-isonicotinamide], the “Selectivity to hA1” value in experiment [1] is 2319. Moreover, in experiment [2], the Ki is 0.851 nM.
For `COc1ccc(C2COCCO2)c2sc(NC(=O)c3ccc(C)cc3)nc12` (single isomer, unassigned; (+)) [Example 34, (+)-N-(7-[1,4]Dioxan-2-yl-4-methoxy-benzothiazol-2-yl)-4-methyl-benzamide] the same measures were 4503 and 0.417 nM.
The like results for `COc1ccc(C2COCCO2)c2sc(NC(=O)c3ccnc(C)c3)nc12` (single isomer, unassigned; (+)) [Example 15, (+)-N-(7-[1,4]Dioxan-2-yl-4-methoxy-benzothiazol-2-yl)-2-methyl-isonicotinamide] were, in that order, 1758 and 0.955 nM.
For `COc1ccc(C2COCCO2)c2sc(NC(=O)c3ccnc(N4CC(F)C4)c3)nc12` (single isomer, unassigned; (+)) [Example 30, (+)-N-(7-[1,4]Dioxan-2-yl-4-methoxy-benzothiazol-2-yl)-2-(3-fluoro-azetidin-1-yl)-isonicotinamide] the same measures were 6138 and 0.891 nM.
As to `COc1ccc(C2COCCO2)c2sc(NC(=O)c3ccnc(C4=CCOCC4)c3)nc12` (racemic) [Example 5, (±)-2-(3,6-Dihydro-2H-pyran-4-yl)-N-(7-[1,4]dioxan-2-yl-4-methoxy-benzothiazol-2-yl)-isonicotinamide], the “Selectivity to hA1” value in experiment [1] was 1421. Besides, the Ki in experiment [2] was 1.45 nM.
For `COc1cc(C(=O)Nc2nc3c(OC)ccc(C4COCCO4)c3s2)ccn1` (single isomer, unassigned; (+)) [Example 14, (+)-N-(7-[1,4]Dioxan-2-yl-4-methoxy-benzothiazol-2-yl)-2-methoxy-isonicotinamide] the same measures were 1828 and 1.2 nM.
For `COc1cccc(C(=O)Nc2nc3c(OC)ccc(C4COCCO4)c3s2)c1` (single isomer, unassigned; (+)) [Example 37, (+)-N-(7-[1,4]Dioxan-2-yl-4-methoxy-benzothiazol-2-yl)-3-methoxy-benzamide] the same measures were 10082 and 0.724 nM.
For `CCOC1CN(c2cc(C(=O)Nc3nc4c(OC)ccc(C5COCCO5)c4s3)ccn2)C1` (single isomer, unassigned; (+)) [Example 31, (+)-N-(7-[1,4]Dioxan-2-yl-4-methoxy-benzothiazol-2-yl)-2-(3-ethoxy-azetidin-1-yl)-isonicotinamide] the same measures were 2718 and 1.23 nM.
Consider `COc1ccc(C2COCCO2)c2sc(NC(=O)c3ccnc(N4CCC(O)CC4)c3)nc12` (single isomer, unassigned; (+)) [Example 29, (+)-4-Hydroxy-3,4,5,6-tetrahydro-2H-[1,2′]bipyridinyl-4′-carboxylic acid (7-[1,4]dioxan-2-yl-4-methoxy-benzothiazol-2-yl)-amide], for which, in experiment [1], the “Selectivity to hA1” value is given as 2850. Moreover, the Ki in experiment [2] was 1.07 nM.
The like results for `COc1ccc(C2COCCO2)c2sc(NC(=O)c3ccc(F)cc3)nc12` (single isomer, unassigned; (+)) [Example 16, (+)-N-(7-[1,4]Dioxan-2-yl-4-methoxy-benzothiazol-2-yl)-4-fluoro-benzamide] were, in that order, 1005 and 0.832 nM.
For `COc1ccc(C2COCCO2)c2sc(NC(=O)c3ccnc(N4CC(OC)C4)c3)nc12` (single isomer, unassigned; (+)) [Example 32, (+)-N-(7-[1,4]Dioxan-2-yl-4-methoxy-benzothiazol-2-yl)-2-(3-methoxy-azetidin-1-yl)-isonicotinamide] the same measures were 5404 and 0.646 nM.
The like results for `COc1ccc(C2COCCO2)c2sc(NC(=O)c3ccnc(N4CCC4)c3)nc12` (single isomer, unassigned; (+)) [Example 18, (+)-2-Azetidin-1-yl-N-(7-[1,4]dioxan-2-yl-4-methoxy-benzothiazol-2-yl)-isonicotinamide] were, in that order, 7378 and 0.977 nM.
On to `COc1cncc(C(=O)Nc2nc3c(OC)ccc(C4COCCO4)c3s2)c1` (single isomer, unassigned; (+)) [Example 53, (+)-N-(7-[1,4]Dioxan-2-yl-4-methoxy-benzothiazol-2-yl)-5-methoxy-nicotinamide], for which, in experiment [1], the “Selectivity to hA1” value stood at 8832. Further, the Ki in experiment [2] is 0.832 nM.
Take `COc1ccc(C2COCCO2)c2sc(NC(=O)c3ccc4c(c3)OCO4)nc12` (single isomer, unassigned; (+)) [Example 36, (+)-Benzo[1,3]dioxole-5-carboxylic acid (7-[1,4]dioxan-2-yl-4-methoxy-benzothiazol-2-yl)-amide]: in experiment [1], the “Selectivity to hA1” value worked out at 1411. Moreover, the Ki in experiment [2] was 0.537 nM.
Consider `COc1ccc(C2COCCO2)c2sc(NC(=O)c3ccnc(C4CCOCC4)c3)nc12` (racemic) [Example 6, (±)-N-(7-[1,4]Dioxan-2-yl-4-methoxy-benzothiazol-2-yl)-2-(tetrahydro-pyran-4-yl)-isonicotinamide], for which, in experiment [1], the “Selectivity to hA1” value amounted to 1582. The Ki in experiment [2] was 1.32 nM.
The like results for `COc1ccc(C2COCCO2)c2sc(NC(=O)c3ccnc(OCCN4CCOCC4)c3)nc12` (single isomer, unassigned; (+)) [Example 52, (+)-N-(7-[1,4]Dioxan-2-yl-4-methoxy-benzothiazol-2-y)-2-(2-morpholin-4-yl-ethoxy)-isonicotinamide] were, in that order, 3141 and 0.501 nM.
For `COc1ccc(C2COCCO2)c2sc(NC(=O)c3cccc(F)c3)nc12` (single isomer, unassigned; (+)) [Example 39, (+)-N-(7-[1,4]Dioxan-2-yl-4-methoxy-benzothiazol-2-yl)-3-fluoro-benzamide] the same measures were 674 and 1.07 nM.
In the case of `COc1ccc(C2COCCO2)c2sc(NC(=O)c3ccnc(N4CCOCC4)c3)nc12` (single isomer, unassigned; (+)) [Example 17, (+)-N-(7-[1,4]Dioxan-2-yl-4-methoxy-benzothiazol-2-yl)-2-morpholin-4-yl-isonicotinamide], in experiment [1], the “Selectivity to hA1” value is on record as 3874. Further, the Ki in experiment [2] was 0.676 nM.
The like results for `COc1ccc(C(=O)Nc2nc3c(OC)ccc(C4COCCO4)c3s2)cc1` (single isomer, unassigned; (+)) [Example 33, (+)-N-(7-[1,4]Dioxan-2-yl-4-methoxy-benzothiazol-2-yl)-4-methoxy-benzamide] were, in that order, 1238 and 0.708 nM.

Values taken from patent US6872833B2, “Adenosine receptor ligands” (Hoffmann-La Roche Inc., priority 2003, dated 2005).
